Experimental data taken from PMC5457628, “Inhibitors of ubiquitin E3 ligase as potential new antimalarial drug leads” (BMC Pharmacology & Toxicology, 2017).
Read-outs that look alike come from different tables or passages of the source.

Legend:
[1] = system: P. falciparum W2 (CQ-resistant strain); assay: Antimalarial SYBR Green I-based fluorescence assay, PfW2; type: cell-based; settings: Plasmodium falciparum
Method: CQ-sensitive (D6, Sierra Leone) and -resistant (W2, Indochina) strains of P. falciparum cultures were obtained from Malaria Research and Reference Reagent Resource Center (MR4), USA and maintained at 5% hematocrit in complete culture medium (RPMI 1640 supplemented with 60 μg/mL amikacin, 27 mM NaHCO3 and 10% heat-inactivated normal human type A+ serum). The medium of the culture was replaced every 48 h, flushed with a gas mixture of 90% N2, 5% CO2 and 5% O2 and incubated at 37 °C.
CQ-sensitive P. falciparum D6 strain (Pf D6) and CQ-resistant P. falciparum W2 strain (Pf W2) were grown in RPMI 1640 medium supplemented with amikacin (60 μg/mL), NaHCO3 (27 mM) and 10% heat-inactivated normal human type A+ serum. Only ring stages of the parasite were counted and adjusted to 2% parasitemia with 2% hematocrit. Stock solutions (10 mM) of the test inhibitors were prepared in DMSO. The compounds were serially diluted in serum-free RPMI-1640 medium for testing at eight concentrations. The maximum concentrations of E3 ligase inhibitors and CQ used in the assay were 50 μM and 500 nM respectively. The plates were incubated at 37 °C in 5% CO2, 5% O2, and 90% N2 environment for 48, 72, 96 and 120 h. After incubation, SYBR green with RBC lysis buffer was added to each well, and the plates were incubated for 1 h in the dark at room temperature. The standard antimalarial agent, CQ was tested as the positive control, and DMSO was tested as vehicle control. Standard fluorescence was measured Fluostar Galaxy microplate reader (BMG Lab Technologies) at excitation wavelength of 485 nm and emission wavelength of 535 nm. The anti-malarial activity (expressed as IC50 values) was determined by the dose-response analysis with XLfit©.

[2] = system: P. falciparum D6 strain (PfD6); assay: Stage specific imaging analysis: parasitemia and differential stage counts in synchronized PfD6 culture (Giemsa smears); type: cell-based, Plasmodium falciparum; settings: CQ 50 nM; for effect on parasitemia as compared to vehicle control: HLI 373 5 μM, Nutlin 3 35 μM; for overall parasitemia: synchronized PfD6, ~6% parasitemia at 0 h, JNJ 26854165 5 μM
Method: The stage-specific activity of the lead compounds was tested against Pf D6. […] The culture was synchronized by 5% sorbitol treatment as previously described. The synchronized culture of PfD6, with ~6% parasitemia and >90% of the parasite in ring stage, was used for these assays. Stock solutions (10 mM) of the test inhibitors were prepared in DMSO. […] The effect of the compounds was monitored after every 8 h (0, 8, 16, 24, 32, 40 and 48 h) by preparing thin smears of the infected erythrocytes. The slides were stained with Giemsa, and digital images of the parasite were captured with Nikon Eclipse microscope under bright field using NIS-element imaging software. The images were analyzed for the parasite stages and morphological changes (if any) in the parasite. The levels of parasitemia and differential parasitemia (relative percentage of different parasite stages) counts were also measured. At least one thousand erythrocytes (total- infected & uninfected) were counted from each slide for determination of the level of parasitemia and differential parasite stage counts.

[3] = system: P. falciparum D6 (CQ-sensitive strain); assay: Antimalarial SYBR Green I-based fluorescence assay, PfD6; type: cell-based
Method: The medium of the culture was replaced every 48 h, flushed with a gas mixture of 90% N2, 5% CO2 and 5% O2 and incubated at 37 °C.
Only ring stages of the parasite were counted and adjusted to 2% parasitemia with 2% hematocrit. Stock solutions (10 mM) of the test inhibitors were prepared in DMSO. […] The maximum concentrations of E3 ligase inhibitors and CQ used in the assay were 50 μM and 500 nM respectively. The plates were incubated at 37 °C in 5% CO2, 5% O2, and 90% N2 environment for 48, 72, 96 and 120 h. After incubation, SYBR green with RBC lysis buffer was added to each well, and the plates were incubated for 1 h in the dark at room temperature. The standard antimalarial agent, CQ was tested as the positive control, and DMSO was tested as vehicle control. […] The anti-malarial activity (expressed as IC50 values) was determined by the dose-response analysis with XLfit©.

[4] = molecular target: MDM2; settings: read-out: Ki, MDM 2 inhibitor; cited from earlier work
[5] = In vitro cytotoxicity assay (AlamarBlue) against PMA-transformed THP1 cells; type: cell-based; settings: human, PMA-transformed non-dividing THP1, mean ± SEM of duplicates, NC = not cytotoxic at highest concentration tested (50 μM inhibitors, 500 nM CQ), read-out: THP1 Cell Cytotoxicity (IC50)
Method: The E3 ligase inhibitors were also tested against Vero cells (African green monkey kidney epithelial cells) and transformed non-dividing human monocytic (THP1) cells. The methods described earlier were used to measure cytotoxicity for Vero and THP1 cells. In brief, four days’ old Vero and THP1 cell cultures were diluted with RPMI medium to 25,000 cells/mL. Vero cells (100 μL per well) were seeded in a clear 96 well culture plate and incubated for 24 h at 37 °C in a 5% CO2 incubator to obtain confluent cells. Phorbol 12-myristate 13-acetate (PMA) (25 ng/mL) was added to THP1 cell culture to transform the cells to adherent macrophages. PMA treated THP1cells were dispensed into clear 96 well culture plates (200 μL/well; 25,000 cells/mL) and incubated at 37 °C in a 5% CO2 incubator for overnight. The test compounds were prepared in DMSO at 10 mM concentration. The compounds were serially diluted in RPMI medium with 2% FBS in the separate daughter plates, for testing at eight concentrations. The cells were washed with culture medium, replaced with the fresh medium and test compounds were added. The maximum concentration of E3 ligase inhibitors and CQ used in these assays were 50 μM and 500 nM respectively. DMSO was tested as vehicle control in these assays. The plates were incubated further in a CO2 incubator at 37 °C for 48 h. After 48 h, 10 μL of AlamarBlue® was added to each well, and the plates were incubated in a CO2 incubator at 37 °C for overnight. […] IC50 values were computed by analyzing dose-response curves with XLfit©.

[6] = In vitro cytotoxicity assay (AlamarBlue) against Vero cells; type: cell-based; settings: African green monkey, Vero cells (kidney epithelial cells), mean ± SEM of duplicates, NC = not cytotoxic at highest concentration tested (50 μM inhibitors, 500 nM CQ), read-out: Vero Cell Cytotoxicity (IC50)
Method: The E3 ligase inhibitors were also tested against Vero cells (African green monkey kidney epithelial cells) and transformed non-dividing human monocytic (THP1) cells. The methods described earlier were used to measure cytotoxicity for Vero and THP1 cells. In brief, four days’ old Vero and THP1 cell cultures were diluted with RPMI medium to 25,000 cells/mL. Vero cells (100 μL per well) were seeded in a clear 96 well culture plate and incubated for 24 h at 37 °C in a 5% CO2 incubator to obtain confluent cells. Phorbol 12-myristate 13-acetate (PMA) (25 ng/mL) was added to THP1 cell culture to transform the cells to adherent macrophages. PMA treated THP1cells were dispensed into clear 96 well culture plates (200 μL/well; 25,000 cells/mL) and incubated at 37 °C in a 5% CO2 incubator for overnight. The test compounds were prepared in DMSO at 10 mM concentration. The compounds were serially diluted in RPMI medium with 2% FBS in the separate daughter plates, for testing at eight concentrations. The cells were washed with culture medium, replaced with the fresh medium and test compounds were added. The maximum concentration of E3 ligase inhibitors and CQ used in these assays were 50 μM and 500 nM respectively. DMSO was tested as vehicle control in these assays. The plates were incubated further in a CO2 incubator at 37 °C for 48 h. […]

[7] = 40 h post-treatment, vehicle control 6.90
[8] = 48 h post-treatment, vehicle control 5.28%
[9] = W2, 48 h incubation, mean ± SEM of duplicates, NA = not active at highest concentration tested (50 μM inhibitors, 500 nM CQ), read-out: P. falciparum W2 (CQ-resistant strain) IC50
[10] = W2, 72 h incubation, mean ± SEM of duplicates, NA = not active at highest concentration tested (50 μM inhibitors, 500 nM CQ), read-out: P. falciparum W2 (CQ-resistant strain) IC50
[11] = Plasmodium falciparum, D6; 48 h incubation; mean ± SEM of duplicates; NA = not active at highest concentration tested (50 μM inhibitors, 500 nM CQ); read-out: P. falciparum D6 (CQ-sensitive strain) IC50
[12] = Plasmodium falciparum, D6; 72 h incubation; mean ± SEM of duplicates; NA = not active at highest concentration tested (50 μM inhibitors, 500 nM CQ); read-out: P. falciparum D6 (CQ-sensitive strain) IC50
[13] = W2, 48-120 h, read-out: IC50 against PfW2
[14] = W2, 96 h incubation, mean ± SEM of duplicates, NA = not active at highest concentration tested (50 μM inhibitors, 500 nM CQ), read-out: P. falciparum W2 (CQ-resistant strain) IC50
[15] = W2, 120 h incubation, mean ± SEM of duplicates, NA = not active at highest concentration tested (50 μM inhibitors, 500 nM CQ), read-out: P. falciparum W2 (CQ-resistant strain) IC50
[16] = Plasmodium falciparum, D6; 48-120 h; read-out: IC50 against PfD6
[17] = Plasmodium falciparum, D6; 96 h incubation; mean ± SEM of duplicates; NA = not active at highest concentration tested (50 μM inhibitors, 500 nM CQ); read-out: P. falciparum D6 (CQ-sensitive strain) IC50
[18] = Plasmodium falciparum, D6; 120 h incubation; mean ± SEM of duplicates; NA = not active at highest concentration tested (50 μM inhibitors, 500 nM CQ); read-out: P. falciparum D6 (CQ-sensitive strain) IC50
[19] = Plasmodium falciparum, D6, 48 h; read-out: IC90 against PfD6 (concentration almost equivalent to IC90)

Row | Structure (SMILES) | effect on parasitemia as compared to vehicle control ([2]; 40 h post-treatment) | overall parasitemia [2, 7] [%] | overall parasitemia [2, 8] [%] | IC50 [1, 9] [µM] | IC50 [1, 10] [µM] | IC50 at 48 h [5] [µM] | IC50 [3, 11] [µM] | IC50 [3, 12] [µM] | IC50 [1, 13] [µM] | IC50 [1, 14] [µM] | IC50 [1, 15] [µM] | IC50 at 48 h [6] [µM] | IC50 [3, 16] [µM] | IC50 [3, 17] [µM] | IC50 [3, 18] [µM] | IC90 [3, 19] [µM] | further results
1 | CCN(CC)CCCC(C)Nc1ccnc2cc(Cl)ccc12 (centres unmarked) [Chloroquine] | significantly decreased the overall parasitemia | 2.40 | 1.92 | – | – | – | – | – | – | – | – | – | – | – | – | – | IC50 ([1]; W2, 48 h, read-out: P. falciparum W2 (CQ-resistant strain) IC50): 0.19 ± 0.004 µM; IC50 ([1]; W2, 72 h, read-out: P. falciparum W2 (CQ-resistant strain) IC50): 0.19 ± 0.007 µM; IC50 ([1]; W2, 96 h, read-out: P. falciparum W2 (CQ-resistant strain) IC50): 0.2 ± 0.001 µM; IC50 ([1]; W2, 120 h, read-out: P. falciparum W2 (CQ-resistant strain) IC50): 0.19 ± 0.002 µM; parasites arrested at ring stage ([2]; 40 and 48 h post-treatment): more than 50%; parasites arrested at ring stage ([2]; 16 h post-treatment): around 50%; IC90 ([3]; Plasmodium falciparum, D6, 48 h, read-out: IC90 against PfD6 (concentration almost equivalent to IC90)): ~0.05 µM; IC50 ([3]; Plasmodium falciparum, D6, 48 h, read-out: P. falciparum D6 (CQ-sensitive strain) IC50): 0.03 ± 0.001 µM; IC50 ([3]; Plasmodium falciparum, D6, 72 h, read-out: P. falciparum D6 (CQ-sensitive strain) IC50): 0.02 ± 0.004 µM; IC50 ([3]; Plasmodium falciparum, D6, 96 h, read-out: P. falciparum D6 (CQ-sensitive strain) IC50): 0.02 ± 0.001 µM; IC50 ([3]; Plasmodium falciparum, D6, 120 h, read-out: P. falciparum D6 (CQ-sensitive strain) IC50): 0.02 ± 0.001 µM
2 | Cc1ccc2ccc(C(Nc3ccccc3)c3ccccc3)c(O)c2n1 (centres unmarked) [NSC 66811] | – | – | – | 28.7 ± 4.01 | 39 ± 2.71 | 37.8 ± 4.1 | 32.2 ± 4.57 | 37 ± 1.8 | – | – | – | – | – | – | – | – | Ki [4]: 0.12 µM
3 | CCc1c2ccccc2c(CSC(=N)N)c2ccccc12 [NSC 146109] | – | – | – | 2.07 ± 0.22 | 2.63 ± 0.05 | 1.2 ± 0.28 | 5.24 ± 0.2 | 4.8 ± 0.05 | < 6 | 2.91 ± 0.03 | 3.23 ± 0.03 | 5.27 ± 0.05 | < 6 | 3.09 ± 0.08 | 2.52 ± 0.39 | – | –
4 | COc1ccc(C2=N[C@@H](c3ccc(Cl)cc3)[C@@H](c3ccc(Cl)cc3)N2C(=O)N2CCNC(=O)C2)c(OC(C)C)c1 (racemic) [Nutlin 3] | significantly reduced | – | – | 18.6 ± 1.6 | 15.72 ± 0.04 | 35.2 ± 2.76 | 12.8 ± 1.34 | 19.4 ± 0.34 | – | 15.4 ± 0.54 | 15.6 ± 2.17 | – | – | 15.9 ± 1.24 | 20 ± 4.52 | ~35 | –
5 | O=C1c2ccccc2-c2nc3nonc3nc21 [SMER 3] | – | – | – | 20.6 ± 5.19 | 23.7 ± 3.53 | 5.8 ± 0.28 | 12.1 ± 0.68 | 49 ± 0.94 | – | 45.8 ± 0.09 | 48.6 ± 0.49 | 16 ± 0.55 | – | – | – | – | –
6 | c1ccc2c(CCNc3ccc(Nc4ccncc4)cc3)c[nH]c2c1 [JNJ 26854165, Serdemetan] | – | 1.90 | 1.76 | 1.86 ± 0.03 | 1.74 ± 0.27 | 22.4 ± 0.56 | 2.17 ± 0.004 | 2.93 ± 0.03 | < 6 | 2.28 ± 0.03 | 2.02 ± 0.36 | – | < 6 | 1.41 ± 0.03 | 1.46 ± 0.12 | ~5 | –
